# Experiment: Pharmacokinetic profile after single oral, intranasal and intravenous betahistine in beagle dogs, Example 5
# Format: in vivo
# Settings: beagle, dog, in vivo; for concentration at 6 h / concentration at 24 h / concentration at 0 h / concentration at 5 min / concentration at 0.167 h / concentration at 0.333 h / concentration at 0.5 h / concentration at 1 h / concentration at 2 h / concentration at 3 h: Betahistine Plasma Concentration
# Method: In this study, the pharmacokinetic profile of betahistine was evaluated after a single dose administration of betahistine in male and female beagle dogs (age 5-7 months; weight of 5-11 kg, within a range of 3 kg for each sex) for three routes of administration: oral, intranasal, and intravenous.
# On Day 1 of the study, betahistine (BH) was delivered orally at a dose of 12 mg/kg, 24 mg/kg, or 48 mg/kg. Each treatment group comprised 8 animals (4 males and 4 females). For pharmacokinetic assessment, plasma samples were collected prior to dosing, and then at 5, 10, 20 and 30 min, 1, 2, 3, 6, 24 hours after dosing.
# On Day 8 of the study, the animals that received oral BH at a dose of 12 mg/kg were administered the test betahistine composition intranasally at a dose of 40 mg betahistine dihydrochloride; the animals that received oral BH at a dose of 24 mg/kg were administered the test betahistine composition intranasally at a dose of 80 mg betahistine dihydrochloride; and the animals that received oral BH at a dose of 48 mg/kg were administered the test betahistine composition intranasally at a dose of 120 mg betahistine dihydrochloride. The test betahistine composition was delivered intranasally in a single dose via an Aptar nasal spray pump device at a total dose level of 40, 80 and 120 mg of betahistine dihydrochloride. Plasma samples were collected prior to dosing, and then at 5, 10, 20 and 30 min, 1, 2, 3, 6, 24 hours after dosing.
# On Day 15 of the study, the animals that received oral BH at a dose of 12 mg/kg and the test betahistine composition intranasally at a dose of 40 mg betahistine dihydrochloride were administered a bolus intravenous injection of betahistine at a dose of 0.44 mg/kg. Plasma samples were collected prior to dosing, and then at 5, 10, 20 and 30 min, 1, 2, 3, 6, 24 hours after dosing.
# Betahistine 13CD3 dihydrochloride and 2-pyridylacetic acid-D4 hydrochloride were used as respective internal standards. The calibration range for betahistine was 0.05-250 ng/mL and for 2-PAA 2.00-3000 ng/mL using a plasma sample volume of 0.50 mL.
# For determination of betahistine, the method involved liquid-liquid extraction, for 2-PAA, the method involved protein precipitation. Plasma samples were prepared for betahistine by extraction under basic conditions with an organic solvent, then the organic phase was dried, reconstituted and transferred for LC/MS-MS analysis. […] Sample analysis was performed using reversed phase chromatography.
# [1] = male, inhaled or intranasal, 5 mg/kg
# [2] = male, inhaled or intranasal, 9.8 mg/kg
# [3] = male, inhaled or intranasal, 15.8 mg/kg
structure (smiles),measurement,setting,value
CNCCc1ccccn1 [betahistine],concentration at 6 h,"female, po, 24 mg/kg",0.342 ng/mL
same,concentration at 24 h,"female, po, 24 mg/kg",0 ng/mL
same,AUC(0-6)/D,"female, po, 48 mg/kg",1.61 ± 0.528 hr*ng/mL/(mg/kg)
same,AUC(0-inf),"female, po, 48 mg/kg",0.0692 ± 0.0233 µg·h/mL
same,Cmax,"female, po, 48 mg/kg",33.5 ± 9.11 ng/mL
same,Cmax/D,"female, po, 48 mg/kg",0.697 ± 0.190 ng/mL/(mg/kg)
same,Oral AUC/dose,"female, po, 48 mg/kg",1.61 (h · ng/mL)/(mg/kg)
same,Tmax,"female, po, 48 mg/kg",60 min
same,half-life,"female, po, 48 mg/kg",35.9 min
same,AUC(0-t),"female, po, 48 mg/kg, AUC(0-6)",0.0775 ± 0.0254 µg·h/mL
same,AUC(0-t),"female, po, 48 mg/kg, AUC(0-t)",0.0775 ± 0.0254 µg·h/mL
same,concentration at 0 h,"female, po, 48 mg/kg",0 ng/mL
same,concentration at 5 min,"female, po, 48 mg/kg",9.87 ng/mL
same,concentration at 0.167 h,"female, po, 48 mg/kg",9.24 ng/mL
same,concentration at 0.333 h,"female, po, 48 mg/kg",11.5 ng/mL
same,concentration at 0.5 h,"female, po, 48 mg/kg",19.4 ng/mL
same,concentration at 1 h,"female, po, 48 mg/kg",32.8 ng/mL
same,concentration at 2 h,"female, po, 48 mg/kg",21.3 ng/mL
same,concentration at 3 h,"female, po, 48 mg/kg",10.1 ng/mL
same,concentration at 6 h,"female, po, 48 mg/kg",0.64 ng/mL
same,concentration at 24 h,"female, po, 48 mg/kg",0 ng/mL
same,AUC(0-inf),[1],0.131 µg·h/mL
same,AUC(0-t)/D,[1],36.4 ± 24.4 hr*ng/mL/(mg/kg)
same,Cmax,[1],598 ng/mL
same,Cmax/D,[1],120 ± 90.1 ng/mL/(mg/kg)
same,Intranasal AUC/dose,[1],36.4 (h · ng/mL)/(mg/kg)
same,Tmax,[1],10.2 min
same,AUC(0-t),"male, inhaled or intranasal, 5 mg/kg, AUC(0-6)",0.178 ± 0.122 µg·h/mL
same,AUC(0-t),"male, inhaled or intranasal, 5 mg/kg, AUC(0-t)",0.182 ± 0.122 µg·h/mL
same,AUC(0-inf),[2],0.202 ± 0.156 µg·h/mL
same,AUC(0-t)/D,[2],17.5 ± 14.3 hr*ng/mL/(mg/kg)
same,Cmax,[2],735 ng/mL
same,Cmax/D,[2],75.0 ± 56.9 ng/mL/(mg/kg)
same,Intranasal AUC/dose,[2],17.5 (h · ng/mL)/(mg/kg)
same,Tmax,[2],7.8 min
same,AUC(0-t),"male, inhaled or intranasal, 9.8 mg/kg, AUC(0-6)",0.168 ± 0.14 µg·h/mL
same,AUC(0-t),"male, inhaled or intranasal, 9.8 mg/kg, AUC(0-t)",0.172 ± 0.14 µg·h/mL
same,AUC(0-t)/D,[3],12.6 ± 4.97 hr*ng/mL/(mg/kg)
same,Cmax,[3],765 ng/mL
same,Cmax/D,[3],48.4 ± 23.7 ng/mL/(mg/kg)
same,Intranasal AUC/dose,[3],12.6 (h · ng/mL)/(mg/kg)
same,Tmax,[3],7.8 min
same,AUC(0-t),"male, inhaled or intranasal, 15.8 mg/kg, AUC(0-6)",0.194 ± 0.0798 µg·h/mL
same,AUC(0-t),"male, inhaled or intranasal, 15.8 mg/kg, AUC(0-t)",0.199 ± 0.0785 µg·h/mL
same,AUC(0-inf),"male, iv, 0.44 mg/kg",0.0184 µg·h/mL
same,AUC(0-t)/D,"male, iv, 0.44 mg/kg",44.3 ± 11.5 hr*ng/mL/(mg/kg)
same,Cmax,"male, iv, 0.44 mg/kg",58.2 ng/mL
same,Cmax/D,"male, iv, 0.44 mg/kg",132 ng/mL/(mg/kg)
same,Tmax,"male, iv, 0.44 mg/kg",4.8 min
same,Vd,"male, iv, 0.44 mg/kg",32.1 L/kg
same,clearance,"male, iv, 0.44 mg/kg",23.9 L/h/kg
same,half-life,"male, iv, 0.44 mg/kg",55.8 min
same,AUC(0-t),"male, iv, 0.44 mg/kg, AUC(0-6)",0.0195 µg·h/mL
same,AUC(0-t),"male, iv, 0.44 mg/kg, AUC(0-t)",0.0195 µg·h/mL
same,concentration at 0 h,"male, iv, 0.44 mg/kg",0.11 ng/mL
same,concentration at 5 min,"male, iv, 0.44 mg/kg",58.2 ng/mL
same,concentration at 0.167 h,"male, iv, 0.44 mg/kg",29.1 ng/mL
same,concentration at 0.333 h,"male, iv, 0.44 mg/kg",8.06 ng/mL
same,concentration at 0.5 h,"male, iv, 0.44 mg/kg",5.57 ng/mL
same,concentration at 1 h,"male, iv, 0.44 mg/kg",0.349 ng/mL
same,concentration at 2 h,"male, iv, 0.44 mg/kg",0.993 ng/mL
same,concentration at 3 h,"male, iv, 0.44 mg/kg",0.081 ng/mL
same,concentration at 6 h,"male, iv, 0.44 mg/kg",1.05 ng/mL
same,concentration at 24 h,"male, iv, 0.44 mg/kg",0 ng/mL
same,AUC(0-6)/D,"male, po, 12 mg/kg",1.04 ± 0.168 hr*ng/mL/(mg/kg)
same,AUC(0-inf),"male, po, 12 mg/kg",0.0133 µg·h/mL
same,Cmax,"male, po, 12 mg/kg",18.9 ± 9.99 ng/mL
same,Cmax/D,"male, po, 12 mg/kg",1.58 ± 0.833 ng/mL/(mg/kg)
same,Oral AUC/dose,"male, po, 12 mg/kg",1.04 (h · ng/mL)/(mg/kg)
same,Tmax,"male, po, 12 mg/kg",30 min
same,half-life,"male, po, 12 mg/kg",18.8 min
same,AUC(0-t),"male, po, 12 mg/kg, AUC(0-6)",0.013 ± 0.00223 µg·h/mL
same,AUC(0-t),"male, po, 12 mg/kg, AUC(0-t)",0.0125 ± 0.00202 µg·h/mL
same,concentration at 0 h,"male, po, 12 mg/kg",0 ng/mL
same,concentration at 5 min,"male, po, 12 mg/kg",1.35 ng/mL
same,concentration at 0.167 h,"male, po, 12 mg/kg",2.73 ng/mL
same,concentration at 0.333 h,"male, po, 12 mg/kg",5.8 ng/mL
same,concentration at 0.5 h,"male, po, 12 mg/kg",18.9 ng/mL
same,concentration at 1 h,"male, po, 12 mg/kg",5.65 ng/mL
same,concentration at 2 h,"male, po, 12 mg/kg",0.457 ng/mL
same,concentration at 3 h,"male, po, 12 mg/kg",0.036 ng/mL
same,concentration at 6 h,"male, po, 12 mg/kg",0.016 ng/mL
same,concentration at 24 h,"male, po, 12 mg/kg",0.021 ng/mL
same,AUC(0-6)/D,"male, po, 24 mg/kg",1.44 ± 0.714 hr*ng/mL/(mg/kg)
same,AUC(0-inf),"male, po, 24 mg/kg",0.0346 ± 0.0171 µg·h/mL
same,Cmax,"male, po, 24 mg/kg",38.3 ± 28.1 ng/mL
same,Cmax/D,"male, po, 24 mg/kg",1.60 ± 1.17 ng/mL/(mg/kg)
same,Oral AUC/dose,"male, po, 24 mg/kg",1.44 (h · ng/mL)/(mg/kg)
same,Tmax,"male, po, 24 mg/kg",60 min
same,half-life,"male, po, 24 mg/kg",47.1 min
same,AUC(0-t),"male, po, 24 mg/kg, AUC(0-6)",0.0345 ± 0.0172 µg·h/mL
same,AUC(0-t),"male, po, 24 mg/kg, AUC(0-t)",0.0345 ± 0.0171 µg·h/mL
same,concentration at 0 h,"male, po, 24 mg/kg",0 ng/mL
same,concentration at 5 min,"male, po, 24 mg/kg",4.69 ng/mL
same,concentration at 0.167 h,"male, po, 24 mg/kg",5.05 ng/mL
same,concentration at 0.333 h,"male, po, 24 mg/kg",23.9 ng/mL
same,concentration at 0.5 h,"male, po, 24 mg/kg",17.8 ng/mL
same,concentration at 1 h,"male, po, 24 mg/kg",26.9 ng/mL
same,concentration at 2 h,"male, po, 24 mg/kg",2.08 ng/mL
same,concentration at 3 h,"male, po, 24 mg/kg",0.611 ng/mL
same,concentration at 6 h,"male, po, 24 mg/kg",0.078 ng/mL
same,concentration at 24 h,"male, po, 24 mg/kg",0 ng/mL
same,AUC(0-6)/D,"male, po, 48 mg/kg",2.73 ± 0.590 hr*ng/mL/(mg/kg)
same,AUC(0-inf),"male, po, 48 mg/kg",0.133 µg·h/mL
same,Cmax/D,"male, po, 48 mg/kg",2.13 ± 0.628 ng/mL/(mg/kg)
same,Oral AUC/dose,"male, po, 48 mg/kg",2.73 (h · ng/mL)/(mg/kg)
same,Tmax,"male, po, 48 mg/kg",60 min
same,half-life,"male, po, 48 mg/kg",31.3 min
same,AUC(0-t),"male, po, 48 mg/kg, AUC(0-6)",0.131 ± 0.0283 µg·h/mL
same,AUC(0-t),"male, po, 48 mg/kg, AUC(0-t)",0.131 ± 0.0283 µg·h/mL
same,concentration at 0 h,"male, po, 48 mg/kg",0 ng/mL
same,concentration at 5 min,"male, po, 48 mg/kg",14.3 ng/mL
same,concentration at 0.167 h,"male, po, 48 mg/kg",35.7 ng/mL
same,concentration at 0.333 h,"male, po, 48 mg/kg",14.3 ng/mL
same,concentration at 0.5 h,"male, po, 48 mg/kg",33.7 ng/mL
same,concentration at 1 h,"male, po, 48 mg/kg",80.2 ng/mL
same,concentration at 2 h,"male, po, 48 mg/kg",21.7 ng/mL
same,concentration at 3 h,"male, po, 48 mg/kg",3 ng/mL
same,concentration at 6 h,"male, po, 48 mg/kg",0.238 ng/mL
same,concentration at 24 h,"male, po, 48 mg/kg",0 ng/mL

# Source: US20200022963A1, “PHARMACEUTICAL COMPOSITION COMPRISING BETAHISTINE” (Otolanum AG, priority 2017, published 2020)
